Assay results: ChEMBL document CHEMBL1201862, “PubChem BioAssay data set” (2004)
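A five-concentration, 48-hour dose response in 96-well plates underlies each endpoint, interpolated linearly between surrounding concentrations. The concentration for 50% growth inhibition is given as GI50.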 Active and inactive are the calls of the source. No stated cut-off is given here; in the data, active = GI50 up to about 1.1 µM and inactive = higher.

Columns and labels:
Test in all cases: NCI-60 cell line screen, 48 h
KM12 = test system: KM12
RXF 393 = test system: RXF 393
LOX IMVI = test system: LOX IMVI
RPMI-8226 = test system: RPMI-8226
SF-539 = test system: SF-539
HT-29 = test system: HT-29
M14 = test system: M14
MCF7 = test system: MCF7
TK-10 = test system: TK-10
UACC-257 = test system: UACC-257
SK-MEL-5 = test system: SK-MEL-5
SF-295 = test system: SF-295
NCI-H460 = test system: NCI-H460
CAKI-1 = test system: CAKI-1
COLO 205 = test system: COLO 205
SK-OV-3 = test system: SK-OV-3
Malme-3M = test system: Malme-3M
HCC 2998 = test system: HCC 2998
SN12C = test system: SN12C
OVCAR-4 = test system: OVCAR-4

Measured: GI50

C[S+](C)([O-])=Nn1c(=O)n2n(c1=O)[C@H]1CC[C@@H]2C1
inactive: KM12 > 100 µM | RXF 393 > 100 µM | LOX IMVI > 100 µM | RPMI-8226 > 100 µM | SF-539 > 100 µM | HT-29 > 100 µM | M14 > 100 µM | MCF7 > 100 µM | TK-10 > 100 µM | UACC-257 > 100 µM | SK-MEL-5 > 100 µM | SF-295 > 100 µM | NCI-H460 > 100 µM | CAKI-1 > 100 µM | COLO 205 > 100 µM | SK-OV-3 > 100 µM | Malme-3M > 100 µM

O=C(Nc1nc2ccc([N+](=O)[O-])cc2s1)C(=O)C(C(=O)c1ccccc1F)C1OC(=O)c2ccccc21 (configuration not stated)
inactive: KM12 55.1 µM | LOX IMVI 27 µM | RPMI-8226 16.4 µM | SF-539 21.3 µM | HT-29 40 µM | M14 56.2 µM | TK-10 87.1 µM | UACC-257 92.5 µM | HCC 2998 24.9 µM | SK-MEL-5 71.9 µM | SF-295 56 µM | SN12C 40.5 µM | NCI-H460 40.5 µM | CAKI-1 41.4 µM | COLO 205 21.3 µM | OVCAR-4 46.8 µM | SK-OV-3 29 µM

CC(NC(C#N)CC12CC3CC(CC(C3)C1)C2)c1ccccc1 (configuration not stated)
inactive: LOX IMVI 17.8 µM | RPMI-8226 15.5 µM | HT-29 31.3 µM | M14 54.8 µM | MCF7 48.9 µM | TK-10 > 100 µM | UACC-257 > 100 µM | HCC 2998 > 100 µM | SK-MEL-5 > 100 µM | SF-295 20.6 µM | NCI-H460 26.5 µM | CAKI-1 33.3 µM | COLO 205 38.1 µM | SK-OV-3 59.6 µM | Malme-3M > 100 µM

CC12Nc3ccccc3C1=C(c1ccccc1)CC1C(=O)OC(=O)C12 (configuration not stated)
inactive: KM12 > 100 µM | RXF 393 > 100 µM | LOX IMVI > 100 µM | RPMI-8226 > 100 µM | SF-539 > 100 µM | HT-29 > 100 µM | M14 > 100 µM | TK-10 > 100 µM | UACC-257 > 100 µM | HCC 2998 > 100 µM | SK-MEL-5 > 100 µM | SF-295 > 100 µM | SN12C > 100 µM | NCI-H460 > 100 µM | COLO 205 > 100 µM | OVCAR-4 > 100 µM | Malme-3M > 100 µM

NC(=S)N/N=C1\c2ccccc2CCC1CCC1(O)CCc2ccccc2C1=O (configuration not stated)
inactive: KM12 26.9 µM | RXF 393 16.2 µM | LOX IMVI 19.3 µM | RPMI-8226 24.9 µM | SF-539 15.3 µM | HT-29 19.8 µM | M14 16.4 µM | MCF7 17.8 µM | TK-10 13.6 µM | UACC-257 18 µM | SK-MEL-5 15 µM | SF-295 23 µM | SN12C 18.1 µM | NCI-H460 16 µM | CAKI-1 58.3 µM | COLO 205 17.7 µM | OVCAR-4 34 µM | SK-OV-3 > 100 µM | Malme-3M 19.8 µM

COc1ccc2c(c1)c1cc(OC)ccc1n2CCCCOc1ccc(-c2c3ccccc3c(-c3ccc(OCCCCn4c5ccc(OC)cc5c5cc(OC)ccc54)cc3)c3ccccc23)cc1
inactive: KM12 > 100 µM | LOX IMVI > 100 µM | SF-539 > 100 µM | M14 > 100 µM | TK-10 > 100 µM | HCC 2998 > 100 µM | SN12C > 100 µM | CAKI-1 > 100 µM | COLO 205 > 100 µM | OVCAR-4 > 100 µM | SK-OV-3 > 100 µM | Malme-3M > 100 µM
